100 compounds from PubChem BioAssay AID2253 (Southern Research Specialized Biocontainment Screening …, 2010) can be followed below.

The experiment deals with THP-1 viability, CellTiter-Glo luminescence, 72 h. In words: THP-1 cell cytotoxicity, dose response, cytotoxicity control for Salmonella PhoP regulon inhibitors, S. typhimurium screen hits (AID 2253).
What is called EC50 is the midpoint of the concentration-response curve. As for `CCOc1ccc(Nc2nc(N)c3ccccc3n2)cc1`, the EC50 is 7.05 µM. `COc1cccc(Cn2cnc3c(NS(=O)(=O)c4cccc(Cl)c4Cl)c(C)c(C)cc32)c1`: the EC50 is 40.4 µM. Then `CCn1c(SCc2nc3scc(-c4ccccc4)c3c(=O)[nH]2)nnc1-c1cccs1`, with 46.6 µM. Turning to `COc1ccc2[nH]c3c(C)c4ccncc4c(C)c3c2c1`, the EC50 is 1.27 µM.

On to `COc1c(N2CCN(C(=S)NCc3ccccc3)C(C)C2)c(F)cc2c(=O)c(C(=O)O)cn(C3CC3)c12` (stereo not given), for which the EC50 is 15.4 µM. Turning to `NNC(=O)CNC(c1ccccc1)c1cc(Br)ccc1NC(=O)c1ccc(Br)cc1` (stereo not given), the half-maximal effective concentration (EC50) was 39.5 µM. In the case of `CCOC(=O)C(C)/C(C)=N/NC(=O)c1cc2ccccc2cc1O` (stereo not given), the EC50 was 6.99 µM.

In the case of `N#CC(C#N)=c1ccc2c(c1)NC1(CCCCC1)N=2`, the EC50 is 4.08 µM. Regarding `C/C(=N/Nc1nc(-c2ccccc2)cc(-c2ccc(F)cc2)n1)c1cccc(N)c1`, the EC50 was 18.1 µM. As for `Cc1ccc(-c2csc(NC(=O)C[n+]3cc(-c4ccc(C)cc4)n4c3CCC4)n2)cc1`, the EC50 is 8.54 µM. As to `CC(C)c1ccc(NC(=O)N(CCc2nc3ccccc3[nH]2)C2CCCC2)cc1`, the EC50 was 43.1 µM. Then `Nc1ccc2c(c1)C(=O)C(=O)c1ccccc1-2`, with 2.23 µM; and `CCCCCCCCCCOC(=O)C[N+](C)(C)C/C=C(/C)Cl`, with 8.56 µM.

With `NC1=NC(=Nc2cccc(Cl)c2)c2ccccc21`, the EC50 is 32.4 µM. The figure for `Nc1nc2ccccc2n1Cc1ccc(Cl)c(Cl)c1` is 24.4 µM; for `Cc1ccc(C(=O)CSC2=C(C#N)C(c3ccco3)CC(=O)N2)c(C)c1` (stereo not given) it is 33.7 µM; for `C1=C(CCNc2ncnc3c2[nH]c2ccccc23)CCCC1` it is 6.37 µM. Turning to `C=CCNc1ncnc2c1[nH]c1ccc(C)cc12`, the EC50 is 25.8 µM. `O=C(Nc1nc(-c2ccccn2)cs1)c1ccc(Cl)s1`: the EC50 is 0.8 µM. For `O=S(=O)(Nc1cc(Sc2cccc3cccnc23)c(O)c2ccccc12)c1ccc(F)cc1`, the EC50 is 2.82 µM. Then `C#CCOCCOCCOCCNc1nc(N2CCN(C(=O)CCCCCCCCCCNC(=O)[C@H]([C@@H](C)CC)n3cc(CCCCN=C(N)N)nn3)CC2)nc(N2CCN(C(=O)CCCCCCCCCCNC(=O)[C@H]([C@@H](C)CC)n3cc(CCCCN=C(N)N)nn3)CC2)n1`, with 4.39 µM; and `O=C(c1ccccc1)c1c2c(cc3sc4ccccc4[n+]13)-c1cccc3cccc-2c13`, with 1.28 µM. Take `CC1N(C)c2cc(NC(=O)c3ccco3)ccc2C1(C)C` (stereo not given): the EC50 is 7.51 µM. Regarding `CC(NCc1ccc(Cl)c(Cl)c1)C(O)c1ccccc1` (stereo not given), the EC50 was 40 µM. As to `COc1cccc(/C=N/Nc2ncc(C(F)(F)F)cc2Cl)c1O`, the EC50 was 0.97 µM.

With `COc1cccc(C2CC(=O)Nc3cc(OC)c(OC)c(OC)c32)c1OC` (stereo not given), the EC50 is 46.2 µM. As to `c1ccc2cc(CSCc3nc4ccccc4[nH]3)ccc2c1`, the EC50 is 42.6 µM.

On to `Cc1ccc(-c2cc(C(=O)Nc3nccs3)c3ccccc3n2)o1`, for which the EC50 was 31.7 µM. For the compound `C/C(=N\NC(=O)c1cc2ccccc2cc1O)c1ccccn1`, the EC50 is 0.76 µM.

As to `c1ccc2c(c1)Sc1ccccc1N2CC1CN2CCC1CC2` (stereo not given), the EC50 is 7.93 µM.

For `Cc1ccc(O)c(-c2cc(-c3ccccc3C)[nH]n2)c1`, the EC50 was 19.9 µM. As to `c1ccc2c(C3=NNC(=NC4CC4)SC3)c[nH]c2c1`, the EC50 was 17.2 µM.

As to `Oc1ccc(/C=N/Nc2nccnc2Cl)c(O)c1`, the EC50 was 1.39 µM. Turning to `CCCCCCOC(=O)C[N+](C)(C)CCOC1CC2CCC1(C)C2(C)C` (stereo not given), the EC50 is 2.8 µM. As to `Nc1nonc1C(=O)NCCN=Cc1cc(Cc2ccccc2)cc(Br)c1O`, the EC50 was 37.8 µM. As for `O=C(N/N=C/c1cn(-c2ccccc2)nc1-c1ccc(F)cc1)c1ccc2c(c1)OCO2`, the EC50 is 35 µM. Take `CN1CCN(C(c2ccc(Cl)cc2)c2cc(Cl)c3cccnc3c2O)CC1` (stereo not given): the EC50 is 1.66 µM. For `CCOc1ccc(/C=C/C(=O)Nc2ccc(OC)cc2[N+](=O)[O-])cc1`, the EC50 is 27.5 µM. The figure for `Nc1cccc2nc3ccccc3cc12` is 4.25 µM.

Consider `CC(=O)NC(c1cccs1)c1cc([N+](=O)[O-])c2cccnc2c1O` (stereo not given), for which the EC50 is 10.1 µM. Regarding `O=C(NC(=S)NNC(=O)c1ccccc1O)c1ccco1`, the EC50 is 14.6 µM.

As to `O=C(c1ccco1)[C@@H]1[C@@H]2C(=O)N(c3ccc(F)cc3)C(=O)[C@@H]2[C@H]2C=Cc3ccccc3N21`, the EC50 is 23.5 µM.

With `Oc1c(CN2CCc3ccccc3C2)cc(Cl)c2cccnc12`, the EC50 is 8.71 µM.

Turning to `COc1ccccc1-c1cc(C(=O)Nc2cc(C)nn2-c2ccccc2)no1`, the EC50 is 25.6 µM. As for `N=c1n(Cc2ccc(Cl)cc2)c2ccccc2n1CC(O)c1ccco1` (stereo not given), the EC50 was 11.8 µM. Take `CCCCCCCCNC(C)C(O)c1ccc(SC(C)C)cc1` (stereo not given): the EC50 is 10.7 µM. Take `Oc1c(CN2CCCCC2)cc(COCc2ccccc2)c2cccnc12`: the EC50 was 6 µM. The figure for `COc1ccc(C(=O)Oc2c(CN3CCOCC3)cc(Cl)c3cccnc23)cc1` is 6.67 µM; for `S=C(NCc1ccncc1)Nc1ccc(Cl)c(Cl)c1` it is 46.2 µM; for `O=C(N/N=C/c1ccc([N+](=O)[O-])s1)C(O)c1ccccc1` (stereo not given) it is 12.1 µM. Regarding `Cc1[nH]nc2c1C(c1cc(Br)cs1)C(C#N)=C(N)O2` (stereo not given), the EC50 is 11.2 µM. The figure for `Cc1ccc(S(=O)(=O)/N=C2/C=C(Sc3ncn[nH]3)C(=O)c3ccccc32)c(C)c1` is 5.51 µM; for `Cc1ccc(Nc2nc(NCc3ccco3)c3ccccc3n2)cc1` it is 4.34 µM. The figure for `CCOC(=O)c1sc(NC(=O)Nc2ccc(Cl)cc2)cc1C` is 10.3 µM; for `CC(C)(C)c1nn(-c2ccccc2)c2[nH]c(=O)c(CNCc3ccco3)cc12` it is 49.6 µM; for `CCCNC1=C(C)C(=O)C2=C(C1=O)C(COC(N)=O)[C@]1(OC)C3NC3CN21` (stereo not given in full) it is 10.1 µM. With `NC(=NCCc1c[nH]c2ccccc12)NC(=O)c1ccc(F)cc1`, the EC50 is 36.4 µM. Turning to `NNC(=O)c1cc2ccccc2cc1O`, the EC50 was 11.9 µM.

For the compound `CCCc1cnc(NCCNCC(O)COc2ccc(Cl)c(Cl)c2)nc1` (stereo not given), the EC50 was 11.8 µM. Take `NC1=NC2(CCCCC2)N=C(Nc2ccc(Br)cc2)N1`: the EC50 was 2.8 µM. On to `CC[n+]1c(/C=C/C=C/c2ccc(N(C)C)cc2)sc2ccccc21`, for which the EC50 was 1.5 µM. Consider `CNc1cc(Cl)c2nonc2c1[N+](=O)[O-]`, for which the EC50 was 3.65 µM. Turning to `S=C(NN=C1C2CC3CC(C2)CC1C3)Nc1ccccc1`, the EC50 is 30.4 µM.

With `Cc1ccsc1C=Nc1ccc(O)cc1`, the EC50 was 25.9 µM. In the case of `NCCc1c(-c2ccccc2)n(-c2ccccc2)c2ccccc12`, the EC50 is 4.76 µM.

For `CN1/C(=C\C=N\NC(=O)c2ccccc2Br)C(C)(C)c2ccccc21`, the EC50 is 32.2 µM. As for `Cc1ccc(C(=O)O)cc1N=Cc1cc(Br)cc(Br)c1O`, the EC50 was 37.2 µM. With `O=C(C[n+]1cc(-c2ccccc2)n2c1CCCCC2)c1ccc(Cl)cc1`, the EC50 is 28.9 µM. The figure for `O=C(C[n+]1cc(-c2ccc(Cl)cc2)n2c1CCC2)Nc1nc(-c2ccc(F)cc2)cs1` is 26.7 µM; for `O=C1c2[nH]nc(-c3ccccc3O)c2C(c2ccc(F)cc2)N1Cc1ccco1` (stereo not given) it is 20 µM; for `Oc1cccc(Nc2c3ccccc3nc3ccccc23)c1` it is 12 µM.

Regarding `Oc1c(CN2CCN(c3ccc(F)cc3)CC2)cc(Cl)c2cccnc12`, the 50% effective concentration (EC50) was 6.36 µM. For `Cc1cc(SCC(=O)N/N=C/c2ccc(O)c(O)c2O)c(C)cc1Br`, the EC50 is 2.76 µM. As to `CC(C)C(=O)NC(c1cccc([N+](=O)[O-])c1)c1ccc2cccnc2c1O` (stereo not given), the EC50 is 0.51 µM. For the compound `CCN(CC)c1ccc(/C=N/Nc2nc3ccccc3[nH]2)c(O)c1`, the EC50 was 2.7 µM. In the case of `N=c1c2c(n(Cc3ccc(Br)cc3)c3c1CCC3)CCCC2`, the EC50 was 3.88 µM. For the compound `CN(C)c1ccc(O)c2c1CC1CC3C(N(C)C)C(=O)C(C(N)=O)=C(O)[C@@]3(O)C(=O)C1=C2O` (stereo not given in full), the EC50 is 36.6 µM. Regarding `Cc1conc1NC(c1cccs1)c1ccc2cccnc2c1O` (stereo not given), the EC50 was 5.5 µM. On to `c1ccc(CN2CCN(c3nc(NCc4ccco4)c4ccccc4n3)CC2)cc1`, for which the EC50 is 20.6 µM. Take `COc1cccc(-c2nnc3sc(-c4ccc(C)cc4)nn23)c1`: the EC50 is 44.3 µM.

In the case of `CCCCC(CC)CN=C(N)NC(N)=NCCCCCCN=C(N)NC(N)=NCC(CC)CCCC` (stereo not given), the EC50 was 1.9 µM. As to `CC(=O)NC(c1ccc(Cl)cc1Cl)c1ccc2cccnc2c1O` (stereo not given), the EC50 is 0.28 µM. On to `Cc1[nH]c2ccccc2c1C(=O)COC(=O)c1ccc([N+](=O)[O-])s1`, for which the EC50 was 47.5 µM. As to `Clc1cc(Br)ccc1OCCCNCc1ccccc1`, the EC50 is 22.8 µM. With `Oc1cccc(/C=N/Nc2ccc(Cl)nn2)c1O`, the EC50 is 0.66 µM. In the case of `O=C(Cc1c[nH]c2ccccc12)N/N=C/c1ccccc1O`, the EC50 is 16.2 µM. For the compound `Oc1[nH]c(=S)sc1/C=C1\C(c2ccccc2)=Nc2ccccc21`, the EC50 is 26 µM.

For `COc1ccc(C(=O)Cn2nc(CNc3ccc(Br)cc3)[n+]3c2CCCCC3)cc1`, the EC50 is 7.74 µM.

Take `CCCCCC(CC(=O)NO)C(=O)NC(C(=O)N1CCCC1CO)C(C)C` (stereo not given): the EC50 is 36.2 µM. In the case of `O=C(Cc1n[nH]c(=O)c2ccccc12)OCC(=O)c1ccc2c(c1)OCCO2`, the EC50 was 1.34 µM. Then `CC(C(=O)c1ccc(-c2ccccc2)cc1)[n+]1cccc(NC(=O)c2ccccc2)c1` (stereo not given), with 19.6 µM; and `NC(N)=NN=C1CCCCCCCCCCC1`, with 7.67 µM. Regarding `OCCCNc1nc(-c2ccc(Cl)cc2)nnc1-c1ccc(Br)cc1`, the EC50 was 19.8 µM. As to `Cn1c(NCc2cc(Br)ccc2O)nc2ccccc21`, the EC50 is 37.5 µM. `N=c1n(Cc2ccccc2)c2ccccc2n1CC(O)COc1ccc(Cl)cc1Cl` (stereo not given): the EC50 is 2.91 µM.

`CN(O)/C=c1/ccc2c(n1)C(=O)C=CC=2`: the EC50 is 23.3 µM.

As for `CCOc1ccc(Nc2c3ccccc3nc3ccccc23)cc1`, the EC50 was 1.24 µM. In the case of `NC1=NC[C@@H](Cc2ccc(O)cc2)N1CCCCC1CCCCC1`, the EC50 is 5.45 µM. Then `CCN(CC)c1ccc(/C=N/NC(=S)NCc2ccccc2)c(O)c1`, with 7.54 µM; and `COC(=O)c1c(C)oc2ccc(NS(=O)(=O)c3cccs3)cc12`, with 48.4 µM.
